Here are results for twelve compounds from patent US20140271474A1, “INHIBITOR PROBES FOR IMAGING SODIUM-GLUCOSE COTRANSPORTERS IN HEALTH AND DISEASE” (THE REGENTS OF THE UNIVERSITY OF CALIFORNIA, priority 2011, published 2014).

Series [1] deals with SGLT2 over SGLT1. The settings on record: cited from earlier work.
The conditions of series [2]: cited from earlier work.
Series [3] concerns the target T1, SGLT2 (Rattus norvegicus, UniProt P53792).
T1 sequence (P53792 1-670): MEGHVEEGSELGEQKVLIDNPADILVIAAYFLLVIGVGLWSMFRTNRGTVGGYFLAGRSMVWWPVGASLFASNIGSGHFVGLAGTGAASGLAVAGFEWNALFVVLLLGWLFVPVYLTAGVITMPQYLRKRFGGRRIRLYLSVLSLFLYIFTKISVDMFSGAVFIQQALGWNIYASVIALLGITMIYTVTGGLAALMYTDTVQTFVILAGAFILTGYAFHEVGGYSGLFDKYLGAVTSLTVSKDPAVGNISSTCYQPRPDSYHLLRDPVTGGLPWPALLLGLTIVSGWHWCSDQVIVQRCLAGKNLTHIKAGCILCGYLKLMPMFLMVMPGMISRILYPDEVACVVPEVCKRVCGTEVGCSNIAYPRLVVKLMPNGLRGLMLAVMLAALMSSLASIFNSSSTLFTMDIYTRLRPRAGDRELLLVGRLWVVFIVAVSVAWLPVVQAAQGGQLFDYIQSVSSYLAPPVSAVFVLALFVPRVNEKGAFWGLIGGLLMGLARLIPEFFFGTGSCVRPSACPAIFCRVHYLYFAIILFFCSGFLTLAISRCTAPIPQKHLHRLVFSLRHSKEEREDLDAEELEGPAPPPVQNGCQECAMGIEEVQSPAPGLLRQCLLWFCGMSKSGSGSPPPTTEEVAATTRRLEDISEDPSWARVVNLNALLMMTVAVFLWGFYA

For series [4], the target named is SGLT2 (Homo sapiens, UniProt P31639). The settings on record: read-out: Ki for SGLT2. An excerpt: A method of making radiolabeled inhibitors pyranosides is also provided.
Sequence of SGLT2 (Homo sapiens, UniProt P31639) (P31639 whole entry): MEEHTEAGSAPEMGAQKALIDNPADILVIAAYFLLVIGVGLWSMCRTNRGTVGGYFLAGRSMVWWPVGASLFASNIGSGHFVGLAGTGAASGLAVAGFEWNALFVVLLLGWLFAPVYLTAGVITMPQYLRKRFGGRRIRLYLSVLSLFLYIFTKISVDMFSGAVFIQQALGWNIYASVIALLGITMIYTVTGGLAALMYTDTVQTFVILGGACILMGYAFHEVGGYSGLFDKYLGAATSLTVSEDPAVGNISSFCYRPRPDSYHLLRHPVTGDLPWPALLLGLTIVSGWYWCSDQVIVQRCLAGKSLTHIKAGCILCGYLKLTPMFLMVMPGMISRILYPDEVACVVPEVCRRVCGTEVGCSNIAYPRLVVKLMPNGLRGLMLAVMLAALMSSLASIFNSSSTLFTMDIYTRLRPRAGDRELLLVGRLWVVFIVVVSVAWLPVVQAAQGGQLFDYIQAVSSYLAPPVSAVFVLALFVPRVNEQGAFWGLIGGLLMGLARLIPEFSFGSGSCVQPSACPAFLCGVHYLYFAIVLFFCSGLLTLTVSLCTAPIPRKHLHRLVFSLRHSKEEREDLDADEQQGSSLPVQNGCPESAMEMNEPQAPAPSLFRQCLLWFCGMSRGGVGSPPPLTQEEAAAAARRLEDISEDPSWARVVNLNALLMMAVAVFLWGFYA
The subject of series [5] is SGLTs. The note with it: cited from earlier work.
For series [6] the following is noted: cited from earlier work. This is another data set of the same source.
For series [7] the following is noted: major metabolite of dapagliflozin; cited from earlier work.
For series [8] the following is noted: for 1-25 hours after oral administration of dapagliflozin; cited from earlier work.
The target in series [9] is T2, SGLT1 (Homo sapiens, UniProt P13866).
T2 sequence (P13866 1-664): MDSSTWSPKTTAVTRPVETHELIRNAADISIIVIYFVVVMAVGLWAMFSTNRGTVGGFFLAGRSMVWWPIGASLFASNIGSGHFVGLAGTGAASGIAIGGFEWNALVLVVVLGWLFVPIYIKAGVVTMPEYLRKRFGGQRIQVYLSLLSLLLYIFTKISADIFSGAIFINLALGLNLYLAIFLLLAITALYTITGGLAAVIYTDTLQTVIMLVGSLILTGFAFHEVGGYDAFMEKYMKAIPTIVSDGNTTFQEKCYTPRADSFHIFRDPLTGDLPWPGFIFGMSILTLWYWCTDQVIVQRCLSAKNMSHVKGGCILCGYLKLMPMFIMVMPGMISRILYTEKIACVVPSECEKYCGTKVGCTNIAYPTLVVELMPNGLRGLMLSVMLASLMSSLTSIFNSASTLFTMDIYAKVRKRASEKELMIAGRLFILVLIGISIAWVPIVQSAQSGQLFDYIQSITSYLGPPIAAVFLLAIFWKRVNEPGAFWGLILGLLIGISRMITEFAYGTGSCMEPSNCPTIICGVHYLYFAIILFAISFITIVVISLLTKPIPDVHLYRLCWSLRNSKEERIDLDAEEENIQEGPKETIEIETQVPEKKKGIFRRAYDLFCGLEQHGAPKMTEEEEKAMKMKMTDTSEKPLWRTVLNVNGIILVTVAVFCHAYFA
The settings on record: specific, non-metabolized substrate; cited from earlier work.

Series [10] concerns GLUTs. The settings on record: cited from earlier work.
Setting [11] is: type 2 diabetic patients, tested doses.
Setting [12] is: images summed 50-60 minutes post injection.

Some results are limits rather than exact numbers.

As to `Cc1cc(OCCCNCC(C)(C)C(N)=O)ccc1Cc1c(O[C@@H]2O[C@H](CO)[C@@H](O)[C@H](O)[C@H]2O)n[nH]c1C(C)C` [DSP-3235], in [1], the “selectivity among SGLTs (in words)” value is “targets SGLT1”.
`CCOc1ccc(Cc2cc([C@@H]3O[C@H](CO)[C@@H](O)[C@H](O)[C@H]3O)ccc2Cl)cc1` [dapagliflozin]: in series [2] (over 28-58 weeks), the weight loss entry is on record as “up to 3.5 Kg”. Besides, in [2] (setting [11]), the “reduction in fasting serum glucose” value is on record as 22±10%, the “reduction in post-prandial glucose absorption (area under the plasma glucose concentration curve)” value was 20±10% and the “sustained urinary glucose excretion” value is listed as 30-65 gram/day. For the same compound, in series [2] (type 2 diabetic patients), the increase in hematocrit result is recorded as “up to 3%”, the “increase in urine volume” value is reported as “up to 470 ml/day”, the “loss of urinary glucose” value is 200 to 300 kcal/day and the “reduction in diastolic blood pressure” value is 2-5 mm Hg. Moreover, the “[18F]-dapagliflozin binding to the kidney cortex after pre-injection of the substance” value in series [3] (setting [12]) was “completely blocked”.
For orientation: Ki means the dissociation constant of the complex between target and ligand, obtained from inhibition or displacement. With `CCOc1ccc(Cc2cc([C@@H]3O[C@H](CO)[C@@H](F)[C@H](O)[C@H]3O)ccc2Cl)cc1` [[18F]-dapagliflozin, (1S)-1,5-anhydro-1-C-{4-chloro-3-[(4-ethoxyphenyl)methyl]phenyl}-4-[18F]-4-deoxy-D-glucitol], the Ki in [4] fell in the range of 1 to 5 nM.
In the case of `O=C[C@@H](O)[C@@H](O)[C@H](O)[C@H](O)CO` [mannose], the “substrate for SGLTs” value in series [5] was “poor substrates”.
`O=C[C@H]([18F])[C@@H](O)[C@H](O)[C@H](O)CO` [2-FDG, 2-deoxy-2-[18F]fluoro-D-glucose]: the “substrate for SGLTs” value in [5] was “not a substrate”.
On to `COC(=O)OC[C@H]1O[C@@H](Oc2cc(C)cc(O)c2C(=O)CCc2ccc3occc3c2)[C@H](O)[C@@H](O)[C@@H]1O` [T-1095], for which the “selectivity among SGLTs (in words)” value in series [1] was “nonselective”. Also, in series [6] (diabetic animals), the blood glucose levels result is “lowered blood glucose levels” and the renal glucose excretion entry is reported as “resulted in renal glucose excretion”. In addition, in [6] (diabetic rodents), the hyperinsulinemia and hypertriglyceridemia result is “reduced hyperinsulinemia and hypertriglyceridemia”; the post-prandial hyperglycemia entry is reported as “suppressed post-prandial hyperglycemia”. The “absorption of the pro-drug” value in [6] (oral) was “absorbed from the gut into the circulation”.
As to `CCOc1ccc(Cc2cc([C@@H]3O[C@H](CO)[C@@H](O)[C@H](O[C@@H]4O[C@H](C(=O)O)[C@@H](O)[C@H](O)[C@H]4O)[C@H]3O)ccc2Cl)cc1` [dapagliflozin 3-O-glucuronide], the “activity of the metabolite” value in [7] is “inactive”. The “plasma level of the metabolite versus native drug” value in series [8] is “higher than the native drug”.
Consider `O=C(CCc1ccc(O)cc1)c1c(O)cc(O)cc1O[C@@H]1O[C@H](CO)[C@@H](O)[C@H](O)[C@H]1O` [Phlorizin], for which the “[18F]-dapagliflozin binding to the kidney cortex after pre-injection of the substance” value in [3] (setting [12]) was “completely blocked”.
On to `CO[C@H]1O[C@H](CO)[C@@H](O)[C@H](O)[C@H]1O` [alpha-methyl-D-glucopyranoside], for which the “concentration reached in cells above plasma concentrations” value in series [9] is on record as not above 800 fold. The “substrate for GLUTs” value in series [10] was “not a substrate”.
With `CCOc1ccc(Cc2cc([C@@H]3O[C@H](CO)[C@@H]([18F])[C@H](O)[C@H]3O)ccc2Cl)cc1` [[18F]-dapagliflozin, (1S)-1,5-anhydro-1-C-{4-chloro-3-[(4-ethoxyphenyl)methyl]phenyl}-4-[18F]-4-deoxy-D-glucitol], the “tracer binding site in microPET image” value in [3] (setting [12]) is on record as “binding to the outer cortex of the kidney”. Moreover, the “18F-activity in the intestine” value in series [3] (with pre-injection of dapagliflozin or phlorizin) is “excretion by the liver into bile”.
For the compound `O=CC[C@@H](O)[C@H](O)[C@H](O)CO` [2-deoxy-D-glucose], the “substrate for SGLTs” value in series [5] is “poor substrates”.
In the case of `Cc1c(Cc2ccc(OC(C)C)cc2)c(O[C@@H]2O[C@H](CO)[C@@H](O)[C@H](O)[C@H]2O)nn1C(C)C` [remogliflozin], in [1], the “selectivity among SGLTs (in words)” value was “markedly increased selectivity for SGLT2”.
